Results: the CheMixHub viscosity set

Assay: xn = mol fraction of the nth substance listed

CN1CCC[C@H]1c1cccnc1 + ClC(Cl)Cl
viscosity [mPa·s], 101.33 kPa
Conditions	298.15 K	308.15 K	323.15 K
x1 = 0.1107	0.8162	0.7343	0.6076
x1 = 0.1213	0.8741	0.7473	0.6289
x1 = 0.2022	1.135	0.9654	0.8066
x1 = 0.219	1.197	0.9796	0.8071
x1 = 0.2456	1.275	1.082	0.8894
x1 = 0.2972	1.463	1.206	0.958
x1 = 0.3738	1.8	1.473	1.138
x1 = 0.4026	1.921	1.588	1.198
x1 = 0.4882	2.296	1.818	1.361
x1 = 0.5032	2.395	1.9	1.402
x1 = 0.6129	2.846	2.267	1.651
x1 = 0.623	2.964	2.301	1.663
x1 = 0.6823	3.103	2.409	1.756
x1 = 0.6974	3.196	2.471	1.768
x1 = 0.8059	3.563	2.756	1.912
x1 = 0.8931	3.704	2.959	2
x1 = 0.8962	3.741	2.974	2.002

CC(C)C#N + Cc1ccccc1
viscosity [mPa·s], 101 kPa
Conditions	x2 = 0.1025	x2 = 0.2009	x2 = 0.2987	x2 = 0.4001	x2 = 0.4983	x2 = 0.6008	x2 = 0.6993	x2 = 0.801	x2 = 0.8983
303.15 K	0.463	0.465	0.468	0.474	0.481	0.49	0.499	0.509	0.517
308.15 K	0.434	0.437	0.439	0.445	0.45	0.46	0.468	0.478	0.486

CN1CCC[C@H]1c1cccnc1 + CCC(C)=O
viscosity [mPa·s], 101 kPa
Conditions	x1 = 0.1253	x1 = 0.2463	x1 = 0.3642	x1 = 0.4878	x1 = 0.6133	x1 = 0.7374	x1 = 0.883
298.15 K	0.5454	0.7187	0.9572	1.246	1.646	2.2	3.069
323.15 K	0.4075	0.5104	0.6647	0.8283	1.041	1.316	1.767
